Where two headings read alike, the source gives them in different places.
Assays:
Type in all cases: in vivo
[1] = system: Alopecurus myosuroides (ALOMY); assay: Pre-emergence herbicidal action against ALOMY; settings: scored visually after about 3 weeks, 100% = plants have died
Procedure, shortened: (§1)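 Greenhouse pot trial: seeds sown, soil-covered, sprayed before emergence with compound in water (0.5% additive; 600 l/ha; ≤320 g/ha). Scoring visual, ~3 weeks, 0–100% scale vs untreated.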

[2] = system: Amaranthus retroflexus (AMARE); assay: Pre-emergence herbicidal action against AMARE; settings: visual scoring after about 3 weeks vs untreated controls
Procedure, shortened: as §1

Avena fatua (AVEFA) [3] = assay: Pre-emergence herbicidal action against AVEFA; settings: 320 g/ha, visual scoring after about 3 weeks vs untreated controls
Procedure, shortened: as §1

[4] = system: Digitaria sanguinalis (DIGSA); assay: Pre-emergence herbicidal action against DIGSA
Procedure, shortened: as §1

[5] = system: Echinochloa crus-galli (ECHCG); assay: Pre-emergence herbicidal action against ECHCG
Procedure, shortened: as §1

Lolium rigidum (LOLRI) [6] = assay: Pre-emergence herbicidal action against LOLRI; settings: dosage 320 g/ha
Procedure, shortened: as §1

[7] = system: Matricaria inodora (MATIN); assay: Pre-emergence herbicidal action against MATIN; settings: dosage 320 g/ha
Procedure, shortened: as §1

[8] = system: Polygonum convolvulus (POLCO); assay: Pre-emergence herbicidal action against POLCO
Procedure, shortened: as §1

Setaria viridis (SETVI) [9] = assay: Pre-emergence herbicidal action against SETVI; settings: dosage 320 g/ha
Procedure, shortened: as §1

Viola tricolor (VIOTR) = assay: Pre-emergence herbicidal action against VIOTR
Procedure, shortened: as §1

Oryza sativa (ORYSA) [10] = settings: pre-emergence, crop plant compatibility, in comparison to untreated controls
Procedure, shortened: (§2)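 Scoring: visual, % of untreated control, about 3 weeks after a pre-emergence application to the soil surface. Application used WP or EC formulations diluted in water with 0.5% additive at 600 l/ha; dosage levels are marked by suffixes a, b and c.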

[11] = system: Triticum aestivum (TRZAS); settings: pre-emergence, crop plant compatibility, in comparison to untreated controls
Procedure, shortened: as §2

[12] = system: Abutilon theophrasti (ABUTH); assay: Post-emergence herbicidal action against ABUTH; settings: 80 g/ha, visual rating about 3 weeks after treatment vs untreated controls (100% = plants have died, 0% = like control plants)
Procedure, shortened: (§3)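 Greenhouse plants sprayed at the one-leaf stage, 2–3 weeks after sowing, with WP or EC formulations plus 0.5% additive at 600 l/ha water. Activity rated visually after about 3 weeks versus untreated controls (100% = dead, 0% = like control), at 320 g/ha or lower.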

[13] = system: Alopecurus myosuroides (ALOMY); assay: Post-emergence herbicidal action against ALOMY; settings: 80 g/ha, visual rating about 3 weeks after treatment vs untreated controls (100% = plants have died, 0% = like control plants)
Procedure, shortened: as §3

[14] = system: Amaranthus retroflexus (AMARE); assay: Post-emergence herbicidal action against AMARE; settings: 80 g/ha, visual rating about 3 weeks after treatment vs untreated controls (100% = plants have died, 0% = like control plants)
Procedure, shortened: as §3

[15] = system: Echinochloa crus-galli (ECHCG); assay: Post-emergence herbicidal action against ECHCG
Procedure, shortened: as §3

[16] = system: Pharbitis purpurea (PHBPU); assay: Post-emergence herbicidal action against PHBPU
Procedure, shortened: as §3

Setaria viridis (SETVI) [17] = assay: Post-emergence herbicidal action against SETVI
Procedure, shortened: as §3

[18] = system: Verconica persica (VERPE); assay: Post-emergence herbicidal action against VERPE
Procedure, shortened: as §3

Oryza sativa (ORYSA) [19] = settings: crop plant compatibility
Procedure, shortened: (§4)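 Test crops were treated 2 to 3 weeks after sowing, once they reached one leaf, by spraying compound in water with 0.5% additive at 600 l/ha. Visual scoring compared them with untreated controls roughly 3 weeks on, and appendices a, b and c denote different doses.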

[20] = system: Triticum aestivum (TRZAS); settings: crop plant compatibility, effect vs untreated controls
Procedure, shortened: as §4

Zea mays (ZEAMX) [21] = settings: for Post-emergence action against ZEAMX in % (crop plant compatibility): 20 g/ha, effect in comparison to untreated controls; for Post-emergence action against ZEAMX in %: crop plant compatibility, effect vs untreated controls
Procedure, shortened: as §4

[22] = system: Verconica persica (VERPE); assay: Pre-emergence herbicidal action against VERPE
Procedure, shortened: as §1

Brassica napus (BRSNW) = settings: 80 g/ha, crop plant compatibility, in comparison to untreated controls
Procedure, shortened: as §2

Zea mays (ZEAMX) [23] = settings: pre-emergence, 80 g/ha, crop plant compatibility, in comparison to untreated controls
Procedure, shortened: as §2

Avena fatua (AVEFA) [24] = assay: Post-emergence herbicidal action against AVEFA; settings: 80 g/ha, visual rating about 3 weeks after treatment
Procedure, shortened: as §3

Lolium rigidum (LOLRI) [25] = assay: Post-emergence herbicidal action against LOLRI
Procedure, shortened: as §3

[26] = system: Pharbitis purpurea (PHBPU); assay: Pre-emergence herbicidal action against PHBPU; settings: dosage 320 g/ha
Procedure, shortened: as §1

[27] = 20 g/ha, effect vs untreated controls
[28] = 80 g/ha, effect in comparison to untreated controls
[29] = 320 g/ha, effect in comparison to untreated controls

Structure (SMILES)	Pre-emergence action against ALOMY ([1]; 320 g/ha)	Pre-emergence action against AMARE in % ([2]; 320 g/ha)	Pre-emergence action against AVEFA in % (Avena fatua (AVEFA) [3])	Pre-emergence action against ECHCG in % ([5]; dosage 320 g/ha)	Pre-emergence action against LOLRI in % (Lolium rigidum (LOLRI) [6])	Pre-emergence action against MATIN in % [7]	Pre-emergence action against POLCO in % ([8]; dosage 80 g/ha)	Pre-emergence action against POLCO in % ([8]; dosage 320 g/ha)	Pre-emergence action against SETVI in % (Setaria viridis (SETVI) [9])	Pre-emergence action against VIOTR in % (Viola tricolor (VIOTR); 320 g/ha, Viola tricolor)	Pre-emergence action against VIOTR in % (Viola tricolor (VIOTR); dosage 80 g/ha)	Pre-emergence action against ORYSA in % (Oryza sativa (ORYSA) [10]; 80 g/ha)	Pre-emergence action against TRZAS in % ([11]; 80 g/ha)	Post-emergence action against ALOMY in % [13]	Post-emergence action against ECHCG in % ([15]; dosage 80 g/ha)	Post-emergence action against PHBPU in % ([16]; dosage 80 g/ha)	Post-emergence action against VERPE in % ([18]; dosage 80 g/ha)	Post-emergence action against ORYSA in % (Oryza sativa (ORYSA) [19]; [28])	Pre-emergence action against ZEAMX in % (Zea mays (ZEAMX) [23])	Post-emergence action against ZEAMX in % (Zea mays (ZEAMX) [21]; 80 g/ha)	further results
O=C(COc1nn(-c2ccccn2)c(-c2ccc(F)nc2)c1Cl)NS(=O)(=O)CC(F)(F)F [Example I-119]	100%	100%	80%	100%	100%	90%	80%	90%	100%	90%	80%	10%	20%	90%	80%	80%	80%	10%	–	–	Pre-emergence action against DIGSA in % ([4]; 80 g/ha, visual scoring after about 3 weeks vs untreated controls): 100%; Pre-emergence action against DIGSA in % ([4]; dosage 320 g/ha): 100%; Pre-emergence action against ECHCG in % ([5]; dosage 80 g/ha): 80%; Post-emergence action against ABUTH in % [12]: 80%; Post-emergence action against AMARE in % [14]: 90%; Post-emergence action against SETVI in % (Setaria viridis (SETVI) [17]; dosage 80 g/ha): 80%; Post-emergence action against ORYSA in % (Oryza sativa (ORYSA) [19]; [27]): 0%; Post-emergence action against TRZAS in % ([20]; 20 g/ha): 20%; Post-emergence action against ZEAMX in % (crop plant compatibility) (Zea mays (ZEAMX) [21]): 10%
COC(=O)[C@@H](C)Oc1nn(-c2ncccc2Cl)c(-c2ccc(F)nc2)c1Br [Example I-24]	100%	100%	100%	100%	100%	90%	90%	90%	90%	100%	90%	–	–	90%	80%	–	–	10%	10%	20%	Pre-emergence action against ALOMY ([1]; 80 g/ha): 100%; Pre-emergence action against AMARE in % ([2]; 80 g/ha): 90%; Pre-emergence action against VERPE in % ([22]; dosage 80 g/ha): 80%; Pre-emergence action against VERPE in % ([22]; dosage 320 g/ha): 100%; Pre-emergence action against BRSNW in % (Brassica napus (BRSNW)): 20%; Post-emergence action against AVEFA in % (Avena fatua (AVEFA) [24]): 90%; Post-emergence action against LOLRI in % (Lolium rigidum (LOLRI) [25]; dosage 80 g/ha): 90%; Post-emergence action against ORYSA in % (Oryza sativa (ORYSA) [19]; [27]): 0%; Post-emergence action against ZEAMX in % (crop plant compatibility) (Zea mays (ZEAMX) [21]): 10%
COC(=O)CCOC(=O)COc1nn(-c2cccc(C)n2)c(-c2ccc(F)nc2)c1Br [Example I-278]	–	80%	–	–	80%	80%	–	–	100%	–	–	0%	0%	–	–	80%	80%	0%	0%	20%	Pre-emergence action against PHBPU in % [26]: 80%; Post-emergence action against ECHCG in % ([15]; dosage 320 g/ha): 80%; Post-emergence action against LOLRI in % (Lolium rigidum (LOLRI) [25]; dosage 320 g/ha): 80%; Post-emergence action against PHBPU in % ([16]; dosage 320 g/ha): 80%; Post-emergence action against SETVI in % (Setaria viridis (SETVI) [17]; dosage 320 g/ha): 90%; Post-emergence action against VERPE in % ([18]; 320 g/ha, VERPE): 90%; Post-emergence action against ORYSA in % (Oryza sativa (ORYSA) [19]; [29]): 10%; Post-emergence action against TRZAS in % ([20]; 80 g/ha): 0%
COC(=O)CNC(=O)COc1nn(-c2cccc(C)n2)c(-c2ccc(F)nc2)c1Br [Example I-357]	–	–	–	–	–	–	–	–	–	–	–	20%	10%	–	–	80%	–	0%	20%	0%	Pre-emergence action against ORYSA in % (Oryza sativa (ORYSA) [10]; 320 g/ha): 20%; Pre-emergence action against TRZAS in % ([11]; 320 g/ha): 10%; Post-emergence action against PHBPU in % ([16]; dosage 320 g/ha): 80%; Post-emergence action against SETVI in % (Setaria viridis (SETVI) [17]; dosage 320 g/ha): 80%; Post-emergence action against ORYSA in % (Oryza sativa (ORYSA) [19]; [29]): 10%; Post-emergence action against TRZAS in % ([20]; 80 g/ha): 10%; Post-emergence action against TRZAS in % ([20]; 320 g/ha): 10%; Post-emergence action against ZEAMX in % (Zea mays (ZEAMX) [21]; 320 g/ha): 10%

From patent US20240041042A1, “1-(PYRIDYL)-5-AZINYLPYRAZOLE DERIVATIVES, AND THEIR USE FOR CONTROL OF UNDESIRED PLANT GROWTH” (Bayer Aktiengesellschaft, priority 2020, published 2024)
